The values that follow come from patent US12509439B2, “Anti-malarial agents” (UNIVERSITY OF KENTUCKY RESEARCH FOUNDATION, priority 2020, dated 2025).

The test system of data set [1] is Plasmodium falciparum (3D7). Description: In-vitro potency against P. falciparum (3D7 strain), SYBR Green growth inhibition. The class given is cell-based. The settings on record: P. falciparum 3D7, asexual intraerythrocytic stage, SYBR Green fluorescence. The procedure: Cultures of the widely-used malaria reference strain of chloroquine-sensitive Plasmodium falciparum (3D7) were maintained in a 1.25% suspension of human red blood cells cultured in RPMI 1640 medium (pH 7.3) supplemented with 0.5% Albumax II (Gibco Life Technologies, San Diego, CA), 12 mM sodium bicarbonate, 0.2 mM hypoxanthine, and 20 mg/L gentamicin at 37° C., in an atmosphere of 1% O2, 3% CO2 with a balance of nitrogen (Human malaria parasites in continuous culture. Trager W et al., 1976, Science, 193: 673-675). Growth inhibition was quantified using a fluorescence assay utilising the binding of SYBR Green (Novel, rapid, and inexpensive cell-based quantification of antimalarial drug efficacy. Bennett T. N. et al., 2004, Antimicrob. Agents Chemother., 48: 1807-1810) to double stranded DNA, which emits a fluorescent signal at 528 nm after excitation at 485 nm. Mefloquine was used as a drug control to monitor the quality of the assay (Z′=0.6 to 0.8, where Z′ is a measure of the discrimination between the positive and negative controls on a screen plate). Hits were confirmed by full-potency curves with dose-response curves determined from a minimum of 3 independent experiments. Compound bioactivity was expressed as EC50, the effective concentration of compound causing 50% parasite death. All data were processed using IDBS ActivityBase. Raw data was converted into percent inhibition through linear regression by setting the high inhibition control as 100% and the no inhibition control as 0%. Quality control criteria for passing plates were as follows: z′>0.5, S:B>3, % CV(no inhibition control)<15. The formula used to calculate z′ is
Curve fitting was carried out using the following 4 parametric equation:
where A=% inhibition at bottom, B=% inhibition at top, C=EC50, D=slope, x=inhibitor concentration and y=% inhibition. If curve definition was poor, B was fixed to 100.

Data set [2] can be described thus: Microsomal intrinsic clearance, human liver microsomes. To be noted: human liver microsomes (pooled), pH 7.4, 45 min, NADPH. Type of data set: in vitro ADME. Here is the method: (§1) The compounds of the invention (1 μM) were incubated in suspension with human (rat or mouse) liver microsomes pooled from multiple donors (>10) and samples taken at 5 time points over the course of a 45 min experiment and analysed by LC MS/MS. Microsomes (final protein concentration 0.5 mg/mL), 0.1 M phosphate buffer pH 7.4 and test compound (final substrate concentration 1 μM; final DMSO concentration 0.25%) were pre-incubated at 37° C. prior to the addition of NADPH (final concentration 1 mM) to initiate the reaction. A minus cofactor control incubation was included for each compound tested where 0.1 M phosphate buffer pH 7.4 is added instead of NADPH (minus NADPH). All incubations were performed in duplicate for each test compound and the results averaged. Each compound is incubated for 0, 5, 15, 30 and 45 min. The control (minus NADPH) was incubated for 45 min only. The reactions were stopped by transferring incubate into acetonitrile at the appropriate time points, in a 1:3 ratio.
(§2) The termination plates were centrifuged at 3,000 rpm for 20 min at 4° C. to precipitate the protein. Following protein precipitation, the sample supernatants were combined in cassettes of up to 4 compounds, internal standard added and samples analysed by LC-MS/MS. From a plot of ln peak area ratio (compound peak area/internal standard peak area) against time, the gradient of the line is determined. Subsequently, half-life (t½) and intrinsic clearance (CLint) are calculated using the equations below: Elimination rate constant (k)=(−gradient) Half-life (t1/2)(min)=0.693/k Intrinsic clearance (i.e. CLint)(μL/min/mg protein)=V×0.693/t1/2 where V=Incubation volume (μL)/Microsomal protein (mg)
(§3) Verapamil and dextromethorphan were included in the assay as controls and if the values for these compounds were not within the specified limits the results were rejected and the experiment repeated.
On the technique in general: Microsomes from liver hold many membrane-bound enzymes, among them those of drug oxidation.

Data set [3] can be described thus: PK parameters in rat (IV and PO). The class given is in vivo. The settings on record: for PK parameters (rat): F: 1 mg/kg IV and 3 mg/kg PO; for clearance / half-life: Sprague Dawley, plasma, IV arm, 1 mg/kg; for clearance: read-out: PK parameters (rat): Cl; for half-life: read-out: PK parameters (rat): t1/2. Here is the method: Swiss Albino male mice or Sprague Dawley rats (TCGLS, India) were kept under a 12/12 h light/dark cycle, 22±2° C. temp, 50±20% RH with free access to food and water ad libitum. Mice were selected randomly/based on body weight/age and fasted for 4 h before dosing and until 2 h after dosing. Three mice were used per route of administration. For IV determination (1 mg/kg, dose volume 5 ml/kg) the dose was administered by injection into the lateral tail vein (rats are anaesthetized using 3% v/v isoflurane: oxygen mixture). For PO determination (3 mg/kg, dose volume 10 ml/kg) the dose was administered by oral gavage in conscious animals.
(§4) Blood samples were taken (mice 50 μL, rat 100 μL) at regular timepoints from the saphenous vein (conscious restrained animals) and collected into heparinized capillary tubes and transferred into 0.5 mL microcentrifuge tubes. Samples were processed by centrifugation at 1640 g for 10 min at +4° C. within 30 min of collection and stored at −20° C. until bioanalysis. All samples were mixed with ice-cold acetonitrile containing an internal standard, centrifuged at 4000 rpm for 15 min at 15° C. Supernatant was then half diluted in water and analysed by LCMS/MS analysis to determine analyte peak area/IS peak area (the ratio). Concentration (plasma) of the compounds of the invention was determined by reference to a calibration curve. Pharmacokinetic parameters (Cmax, Tmax, AUC, t1/2, CL, Vd, BA) were calculated using WinNonLin, using non-compartmental analysis (Phoenix, Version 6.3). The pharmacokinetic parameters for compounds shown in Table 2 support that compounds of the invention have pharmacokinetic properties associated with treatment of malaria via the oral route and that compounds have substantially longer half-lives than the reference compound.

The nature of data set [4]: Microsomal intrinsic clearance, rat liver microsomes. Type of data set: in vitro ADME. The settings on record: rat liver microsomes (pooled), pH 7.4, 45 min, NADPH. The procedure:
as §1, §2, §3

Data set [5] in a line: Hepatocyte intrinsic clearance, cryopreserved human hepatocytes. The class given is in vitro ADME. To be noted: cryopreserved human hepatocytes in suspension (pooled), 60 min. Here is the method: The compounds of the invention (3 μM) were incubated in suspension with cryopreserved human (rat or mouse) hepatocytes pooled from multiple donors (>10) and samples taken at 6 time points over the course of a 60 min experiment and analysed by LC MS/MS. Williams E media supplemented with 2 mM L-glutamine and 25 mM HEPES and test compound (final substrate concentration 3 μM; final DMSO concentration 0.25%) were pre-incubated at 37° C. prior to the addition of a suspension of cryopreserved hepatocytes (final cell density 0.5×10^6 viable cells/mL in Williams E media supplemented with 2 mM L glutamine and 25 mM HEPES) to initiate the reaction. The final incubation volume is 500 μL. The reactions are stopped by transferring aliquots of incubate into acetonitrile at the appropriate time points, in a 1:2 ratio. The termination plates are centrifuged at 3,000 rpm for 20 min at 4° C. to precipitate the protein. Following protein precipitation, the sample supernatants were combined in cassettes of up to 4 compounds, internal standard was added and analysed by LC MS/MS. From a plot of ln peak area ratio (compound peak area/internal standard peak area) against time, the gradient of the line was determined. Subsequently, half-life (t½) and intrinsic clearance (CLint) were calculated using the equations below: Elimination rate constant (k)=(−gradient) Half-life (t½) (min)=0.693/k Intrinsic clearance (i.e. CLint) (μL/min/million cells)=V×0.693/t1/2
where V=Incubation volume (μL)/Number of cells
Verapamil and umbelliferone were included in the assay as controls and if the values for these compounds are not within the specified limits the results were rejected and the experiment repeated.

Data set [6] is described as follows: PK parameters in mouse (IV and PO). The settings on record: for PK parameters (mouse): F: 10 mg/kg IV and 10 mg/kg PO; for clearance / half-life: male, Swiss Albino, plasma, IV arm, 10 mg/kg; for clearance: read-out: PK parameters (mouse): Cl; for half-life: read-out: PK parameters (mouse): t1/2. Type of data set: in vivo. The procedure: Swiss Albino male mice or Sprague Dawley rats (TCGLS, India) were kept under a 12/12 h light/dark cycle, 22±2° C. temp, 50±20% RH with free access to food and water ad libitum. Mice were selected randomly/based on body weight/age and fasted for 4 h before dosing and until 2 h after dosing. Three mice were used per route of administration. […]
as §4

Data set [7] is described as follows: Microsomal intrinsic clearance, mouse liver microsomes. Type of data set: in vitro ADME. To be noted: mouse liver microsomes (pooled), pH 7.4, 45 min, NADPH. Here is the method: as §1, §2, §3

A value given as a limit tells only on which side of the number the result lay.

Broadly, the EC50 is the concentration giving half of the maximal effect. Higher therefore signals lower potency in that assay. As usually defined, the microsomal CLint is the capacity of the preparation to metabolise the compound, expressed as a volume cleared per time. In general, hepatocyte CLint refers to the capacity of the preparation to metabolise the compound, expressed as a volume cleared per time. A higher hepatocyte CLint goes with rapid turnover.

`CC(C)Oc1ccc(C2C(C(=O)Nc3ccc(F)c(C#N)c3)c3ccccc3C(=O)N2CC(F)(F)F)cn1` (racemic) [(2), (+, −)-N-(3-cyano-4-fluorophenyl)-3-(6-isopropoxypyridin-3-yl)-1-oxo-2-(2,2,2-trifluoroethyl)-1,2,3,4-tetrahydroisoquinoline-4-carboxamide]: the EC50 in data set [1] was 80 nM. The same compound showed a microsomal CLint at 1 μM in data set [2] of 13 µL/min/mg.

As to `N#Cc1cc(NC(=O)[C@H]2c3ccccc3C(=O)N(CC(F)(F)F)[C@@H]2c2ccc(C(F)(F)F)nc2)ccc1F` [(3a), (3S,4S)—N-(3-cyano-4-fluorophenyl)-1-oxo-2-(2,2,2-trifluoroethyl)-3-(6-(trifluoromethyl)pyridin-3-yl)-1,2,3,4-tetrahydroisoquinoline-4-carboxamide], in data set [3], the “PK parameters (rat): F” value is on record as “F = 95%”, the clearance was 0.667 mL/min/kg and the half-life was 660 min. The EC50 in data set [1] is 70 nM. The compound also registered a microsomal CLint at 1 μM in data set [4] below 10 µL/min/mg. In data set [5], this compound showed a hepatocyte CLint at 3 μM below 10 µL/min/1e6 cells. Besides, in data set [6], the “PK parameters (mouse): F” value is given as “F = 95%”, the clearance was 1.67 mL/min/kg and the half-life stood at 660 min. This compound yielded a microsomal CLint at 1 μM in data set [2] of 6 µL/min/mg. The same compound had a microsomal CLint at 1 μM in data set [7] below 10 µL/min/mg.

As to `N#Cc1cc(NC(=O)[C@H]2c3ccccc3C(=O)N(CC(F)(F)F)[C@@H]2c2ccc(OCC(F)(F)F)nc2)ccc1F` [(4a), (3S,4S)—N-(3-cyano-4-fluorophenyl)-1-oxo-3-(6-(2,2,2-trifluoroethoxy)pyridin-3-yl)-2-(2,2,2-trifluoroethyl)-1,2,3,4-tetrahydroisoquinoline-4-carboxamide], the “PK parameters (rat): F” value in data set [3] was “F = 33%”. Besides, the clearance in data set [3] came out at 0.5 mL/min/kg; in data set [6] it was 2.67 mL/min/kg. For the same compound, the values for the half-life in data set [3] and in data set [6] were 5100 min and 2460 min, respectively. In data set [1], this compound had an EC50 of 53 nM. Moreover, the values for the microsomal CLint at 1 μM in data set [4], in data set [2] and in data set [7] were below 10 µL/min/mg, below 3 µL/min/mg and below 10 µL/min/mg, respectively. The same compound displayed a hepatocyte CLint at 3 μM in data set [5] below 3 µL/min/1e6 cells. In data set [6], the “PK parameters (mouse): F” value is “F = 56%”.

`CC(=O)Nc1ccc([C@@H]2[C@@H](C(=O)Nc3ccc(F)c(C#N)c3)c3ccccc3C(=O)N2CC(F)(F)F)cn1` [(5a), (3S,4S)-3-(6-acetamidopyridin-3-yl)-N-(3-cyano-4-fluorophenyl)-1-oxo-2-(2,2,2-trifluoroethyl)-1,2,3,4-tetrahydroisoquinoline-4-carboxamide] gave an EC50 in data set [1] of 40 nM.

In data set [1], `N#Cc1ccc([C@@H]2[C@@H](C(=O)Nc3ccc(F)c(C#N)c3)c3ccccc3C(=O)N2CC(F)(F)F)cn1` [(6a), (3S,4S)—N-(3-cyano-4-fluorophenyl)-3-(6-cyanopyridin-3-yl)-1-oxo-2-(2,2,2-trifluoroethyl)-1,2,3,4-tetrahydroisoquinoline-4-carboxamide] had an EC50 of 68 nM. Also, the hepatocyte CLint at 3 μM in data set [5] is below 3 µL/min/1e6 cells. Moreover, the results for the microsomal CLint at 1 μM in data set [2] and in data set [7] were below 3 µL/min/mg and below 10 µL/min/mg, respectively.

With `N#Cc1cc(NC(=O)[C@H]2c3ccccc3C(=O)N(CC(F)(F)F)[C@@H]2c2ccc(OC(F)F)nc2)ccc1F` [(7a), (3S,4S)—N-(3-cyano-4-fluorophenyl)-3-(6-(difluoromethoxy)pyridin-3-yl)-1-oxo-2-(2,2,2-trifluoroethyl)-1,2,3,4-tetrahydroisoquinoline-4-carboxamide], in data set [3], the “PK parameters (rat): F” value is given as “F = 108%”, the clearance was 1.5 mL/min/kg and the half-life stood at 2280 min. In data set [1], this compound gave an EC50 of 68 nM. In data set [5], this compound gave a hepatocyte CLint at 3 μM below 10 µL/min/1e6 cells. Further, in data set [6], the “PK parameters (mouse): F” value is listed as “F = 108%”, the clearance is 2.67 mL/min/kg and the half-life came to 1080 min. The compound further showed a microsomal CLint at 1 μM in data set [2] below 3 µL/min/mg. Further, the microsomal CLint at 1 μM in data set [7] is below 10 µL/min/mg.

In turn, `N#Cc1cc(NC(=O)[C@H]2c3ccccc3C(=O)N(CC(F)(F)F)[C@@H]2c2ccc(C(F)F)nc2)ccc1F` [(8a), (3S,4S)—N-(3-cyano-4-fluorophenyl)-3-(6-(difluoromethyl)pyridin-3-yl)-1-oxo-2-(2,2,2-trifluoroethyl)-1,2,3,4-tetrahydroisoquinoline-4-carboxamide] displayed an EC50 in data set [1] of 59 nM. Also, the hepatocyte CLint at 3 μM in data set [5] came to 4 µL/min/1e6 cells. In data set [6], the “PK parameters (mouse): F” value is listed as “F = 37%”, the clearance came to 3.33 mL/min/kg and the half-life turned out to be 3360 min. Further, the microsomal CLint at 1 μM in data set [2] is below 3 µL/min/mg. Also, in data set [7], the microsomal CLint at 1 μM was below 10 µL/min/mg.
